In patent publication US11739074B2, “Ras inhibitors” (Revolution Medicines, Inc., priority 2019, dated 2023) one finds EC50 and IC50 data, which are given here for ten compounds.

Molecules are shown by their SMILES. Like-named read-outs stand apart in the source and are kept apart here.

Holding throughout (assay type): cell-based
For test [1], the system named is AsPC-1 (K-Ras G12D). Put plainly: Potency assay: pERK in AsPC-1 cells. Particulars: Homo sapiens.
In another test the test system is NCI-H358 (K-Ras G12C). Put plainly: CellTiter-Glo cell viability assay, H358. Conditions: Homo sapiens, NCI-H358, 120 h. Summed up:
(§1)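 Test compounds were dispensed directly onto seeded cells, and on day 5 plates were brought to room temperature for about 30 minutes before CellTiter-Glo luminescence was read. Signals were expressed as percent of the mean DMSO control and fitted with a four-parameter logistic model.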

For test [2], the system named is AsPC-1 (K-Ras G12D). Put plainly: CellTiter-Glo cell viability assay, AsPC-1. Particulars: Homo sapiens, ASPC1, 120 h. Summed up: as §1
Where [3] appears, read: ASPC1, read-out: pERK EC50 (AsPC-1 KRAS G12D).
Where [4] appears, read: read-out: H358 Cell Viability IC50, NCI-H358, K-Ras G12C, 5-day treatment.
Where [5] appears, read: read-out: AsPC-1 Cell Viability IC50, AsPC-1, K-Ras G12D, 5-day treatment.
The mark [6] stands for this setting: ASPC1, AsPC-1 cells, K-Ras G12D, read-out: pERK EC50 (AsPC-1 KRAS G12D).
The mark [7] stands for this setting: NCI-H358, K-Ras G12C, 5-day treatment, read-out: H358 Cell Viability IC50.
[8] abbreviates: AsPC-1, K-Ras G12D, 5-day treatment, read-out: AsPC-1 Cell Viability IC50.

Consider `CC[C@@H]1N[C@@H]1C(=O)N(C)CC(=O)N(C)[C@H](C(=O)N[C@H]1Cc2cc(O)cc(c2)-c2ccc3c(c2)c(c(-c2cccnc2[C@H](C)OC)n3CC)CC(C)(C)COC(=O)[C@@H]2CCCN(N2)C1=O)C(C)C` [Compound 263], for which the EC50 in the test on AsPC-1 (K-Ras G12D) [1] (setting [3]) was below 5 µM. Further, the IC50 in the test on NCI-H358 (K-Ras G12C) (setting [4]) lay in the range of 0.01 to 0.1 µM; in the test on AsPC-1 (K-Ras G12D) [2] (setting [5]) it was 0.1 to 1 µM.

Consider `CCn1c(-c2cccnc2[C@H](C)OC)c2c3cc(ccc31)-c1csc(n1)C[C@H](NC(=O)[C@H](C1CCCC1)N(C)C(=O)CN(C)C(=O)[C@H]1CN1)C(=O)N1CCC[C@H](N1)C(=O)OCC(C)(C)C2` [Compound 132], for which the EC50 with AsPC-1 (K-Ras G12D) [1] (setting [6]) was below 5 µM. The figures for the IC50 in the test with NCI-H358 (K-Ras G12C) (setting [7]) and with AsPC-1 (K-Ras G12D) [2] (setting [8]) were 0.01 to 0.1 µM and 1 to 10 µM, respectively.

As for `CCn1c(-c2cccnc2[C@H](C)OC)c2c3cc(ccc31)-c1cc(O)cc(c1)C[C@H](NC(=O)[C@H](C1CCCC1)N1CC[C@]3(CCN(C(=O)[C@H]4CN4)C3)C1=O)C(=O)N1CCC[C@H](N1)C(=O)OCC(C)(C)C2` [Example 175, (2S)-2-((S)-7-((R)-aziridine-2-carbonyl)-1-oxo-2,7-diazaspiro[4.4]nonan-2-yl)-2-cyclopentyl-N-((6^3S,4S)-1^1-ethyl-2^5-hydroxy-1^2-(2-((S)-1-methoxyethyl)pyridin-3-yl)-10,10-dimethyl-5,7-dioxo-6^1,6^2,6^3,6^4,6^5,6^6-hexahydro-1^1H-8-oxa-1(5,3)-indola-6(1,3)-pyridazina-2(1,3)-benzenacycloundecaphane-4-yl)acetamide], the EC50 with AsPC-1 (K-Ras G12D) [1] (setting [6]) is below 5 µM. In addition, the IC50 is below 0.01 µM in the test on NCI-H358 (K-Ras G12C) (setting [7]) and 0.01 to 0.1 µM with AsPC-1 (K-Ras G12D) [2] (setting [8]).

With `CCn1c(-c2cccnc2[C@H](C)OC)c2c3cc(ccc31)-c1cc(O)cc(c1)C[C@H](NC(=O)[C@H](C1CCCC1)N(C)C(=O)CN(C)C(=O)[C@@H]1N[C@@H]1C1(OC)CC1)C(=O)N1CCC[C@H](N1)C(=O)OCC(C)(C)C2` (single isomer, unassigned) [Compound 323], in the test with AsPC-1 (K-Ras G12D) [1] (setting [6]), the EC50 is below 5 µM. The IC50 in the test on NCI-H358 (K-Ras G12C) (setting [7]) was 0.01 to 0.1 µM; in the test with AsPC-1 (K-Ras G12D) [2] (setting [8]) it was 0.1 to 1 µM.

`CCn1c(-c2cccnc2[C@H](C)OC)c2c3cc(ccc31)-c1cc(O)cc(c1)C[C@H](NC(=O)[C@H](C(C)C)N(C)C(=O)CN(C)C(=O)[C@]1(C)CN1)C(=O)N1CCC[C@H](N1)C(=O)OCC(C)(C)C2` [Compound 257]: the concentration for a half-maximal effect (EC50) in the test on AsPC-1 (K-Ras G12D) [1] (setting [3]) is below 5 µM. In addition, the results for the IC50 in the test on NCI-H358 (K-Ras G12C) (setting [4]) and in the test on AsPC-1 (K-Ras G12D) [2] (setting [5]) were 0.01 to 0.1 µM and 0.1 to 1 µM, respectively.

With `CCn1c(-c2cccnc2[C@H](C)OC)c2c3cc(ccc31)-c1csc(n1)C[C@H](NC(=O)[C@H](C(C)C)N(C)C(=O)N1CCC[C@H](N(C)C(=O)[C@@H]3CN3)C1)C(=O)N1CCC[C@H](N1)C(=O)OCC(C)(C)C2` [Compound 292], in the test on AsPC-1 (K-Ras G12D) [1] (setting [6]), the EC50 is below 5 µM. For the same compound, the results for the concentration for half-maximal inhibition (IC50) in the test on NCI-H358 (K-Ras G12C) (setting [7]) and in the test on AsPC-1 (K-Ras G12D) [2] (setting [8]) were 0.01 to 0.1 µM and 1 to 10 µM, respectively.

`CCn1c(-c2cccnc2[C@H](C)OC)c2c3cc(ccc31)-c1csc(n1)C[C@H](NC(=O)[C@H](C(C)C)N(C)C(=O)N1CC(CN(C)C(=O)[C@H]3CN3)C1)C(=O)N1CCC[C@H](N1)C(=O)OCC(C)(C)C2` [Compound 224]: the concentration for a half-maximal effect (EC50) in the test on AsPC-1 (K-Ras G12D) [1] (setting [6]) is below 5 µM. Moreover, the 50% inhibitory concentration (IC50) in the test on NCI-H358 (K-Ras G12C) (setting [7]) lay within 0.01 to 0.1 µM; in the test with AsPC-1 (K-Ras G12D) [2] (setting [8]), 0.1 to 1 µM.

On to `CCn1c(-c2cccnc2[C@H](C)OC)c2c3cc(ccc31)-c1cc(O)cc(c1)C[C@H](NC(=O)[C@H](C(C)C)N(C)C(=O)CN(C)C(=O)[C@@H]1N[C@@H]1C1CC1)C(=O)N1CCC[C@H](N1)C(=O)OCC(C)(C)C2` [Example 133, (2R,3R)-3-cyclopropyl-N-(2-(((2S)-1-(((6^3S,4S)-1^1-ethyl-2^5-hydroxy-1^2-(2-((S)-1-methoxyethyl)pyridin-3-yl)-10,10-dimethyl-5,7-dioxo-6^1,6^2,6^3,6^4,6^5,6^6-hexahydro-1^1H-8-oxa-1(5,3)-indola-6(1,3)-pyridazina-2(1,3)-benzenacycloundecaphane-4-yl)amino)-3-methyl-1-oxobutan-2-yl)(methyl)amino)-2-oxoethyl)-N-methylaziridine-2-carboxamide], for which, in the test with AsPC-1 (K-Ras G12D) [1] (setting [3]), the EC50 was below 5 µM. Also, the IC50 with NCI-H358 (K-Ras G12C) (setting [4]) and in the test with AsPC-1 (K-Ras G12D) [2] (setting [5]) was 0.01 to 0.1 µM throughout.

Consider `CCn1c(-c2cccnc2[C@H](C)OC)c2c3cc(ccc31)-c1cc(O)cc(c1)C[C@H](NC(=O)[C@H](C(C)C)N(C)C(=O)CN(C)C(=O)[C@H]1N[C@@H]1C(F)(F)F)C(=O)N1CCC[C@H](N1)C(=O)OCC(C)(C)C2` [Compound 261], for which the EC50 in the test with AsPC-1 (K-Ras G12D) [1] (setting [3]) is below 5 µM. The half-maximal inhibitory concentration (IC50) is below 0.01 µM in the test on NCI-H358 (K-Ras G12C) (setting [4]) and 0.1 to 1 µM in the test on AsPC-1 (K-Ras G12D) [2] (setting [5]).

For the compound `CCn1c(-c2cccnc2[C@H](C)OC)c2c3cc(ccc31)-c1cc(O)cc(c1)C[C@H](NC(=O)[C@H](C(C)C)N(C)C(=O)c1ncc(NC(=O)[C@@H]3CN3)n1C)C(=O)N1CCC[C@H](N1)C(=O)OCC(C)(C)C2` [Compound 83], the EC50 in the test on AsPC-1 (K-Ras G12D) [1] (setting [6]) was below 5 µM. Moreover, the IC50 lay in the range of 0.01 to 0.1 µM with NCI-H358 (K-Ras G12C) (setting [7]) and 1 to 10 µM with AsPC-1 (K-Ras G12D) [2] (setting [8]).
